# Laboratory results taken from patent US20220324835A1 (Nurix Therapeutics, Inc., priority 2018, published 2022).
# Read-outs that look alike come from different tables or passages of the source.
# Tests used:
# Assay type in all cases: cell-based
# [1] = system: primary human total T-cells; test: T-cell activation assessed by CD69 expression
# In short: (§1)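 Readouts are fold change versus compound-free cells under the same stimulation: plate-bound anti-CD3 (OKT3, 10 μg/mL coating) alone or with soluble anti-CD28 at 5 μg/mL, for 48 h. Isolated human total T cells (1×10^5/well) got inhibitor 1 h beforehand at concentrations such as 10, 1.11 or 0.123 μM. Measured: GM-CSF/IFNγ/TNFα secretion, surface CD69, proliferation by dye dilution.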
# [2] = system: primary human total T-cells; test: T-cell activation assessed by cell proliferation (Cell Trace Violet)
# In short: as §1
# primary human NK cells = test: NK cell activation assessed by cytokine secretion (coculture with K562 NucRed target cells); conditions: K562, NK cells cocultured with K562 NucRed, 1:1 E/T; for fold induction at 0.625 µM: 0.625 μM compound; for fold induction at 2.5 µM: 2.5 μM compound; for fold induction at 10 µM: 10 μM compound
# In short: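 Primary NK cells from donor PBMC, IL-2 (60 ng/mL) overnight, then Cbl-b inhibitor (e.g. 10, 1 or 0.1 μM; DMSO <0.1%) for 1 h before 6 h coculture with K562 NucRed at effector:target ratios such as 5:1, 1:1 or 1:5. Supernatant IFNγ, TNFα, MIP1β measured by ELISA or Luminex; fold change over inhibitor-free baseline, >2.0-fold positive.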
# [3] = CD3/CD28 stimulation, CD4 T-cells, read-out: % CD69+ (CD4)
# [4] = CD3/CD28 stimulation, CD8 T-cells, read-out: % CD69+ (CD8)
# [5] = CD3 alone stimulation, CD4 T-cells, read-out: % CD69+ (CD4)
# [6] = CD3 alone stimulation, CD8 T-cells, read-out: % CD69+ (CD8)
# [7] = CD3/CD28 stimulation, CD4 T-cells, read-out: % CP (cell proliferation) (CD4)
# [8] = CD3/CD28 stimulation, CD8 T-cells, read-out: % CP (cell proliferation) (CD8)
# [9] = CD3 alone stimulation, CD8 T-cells, read-out: % CP (cell proliferation) (CD8)
# [10] = read-out: IFNγ secretion, fold change over baseline
# [11] = read-out: TNFα secretion, fold change over baseline
SMILES,"fold induction at 1.11 µM [1, 3]","fold induction at 10 µM [1, 3]","fold induction at 1.11 µM [1, 4]","fold induction at 10 µM [1, 4]","fold induction at 1.11 µM [1, 5]","fold induction at 10 µM [1, 5]","fold induction at 1.11 µM [1, 6]","fold induction at 10 µM [1, 6]","fold induction at 1.11 µM [2, 7]","fold induction at 10 µM [2, 7]","fold induction at 1.11 µM [2, 8]","fold induction at 10 µM [2, 8]","fold induction at 1.11 µM [2, 9]","fold induction at 10 µM [2, 9]",fold induction at 0.625 µM (primary human NK cells; [10]),fold induction at 0.625 µM (primary human NK cells; [11]),fold induction at 2.5 µM (primary human NK cells; [10]),fold induction at 2.5 µM (primary human NK cells; [11]),fold induction at 10 µM (primary human NK cells; [10]),fold induction at 10 µM (primary human NK cells; [11])
"CNCc1ccc(C(=O)Nc2cccc([C@H](C)Cc3nncn3C)c2)nc1C1CC1 [Compound 376, (R)-6-cyclopropyl-N-(3-(1-(4-methyl-4H-1,2,4-triazol-3-yl)propan-2-yl)phenyl)-5-((methylamino)methyl)picolinamide]",1.4 to 1.6,> 1.6,1.2 to 1.4,1.2 to 1.4,> 1.6,> 1.6,1.2 to 1.4,1.4 to 1.6,> 4,> 4,3.01 to 4,> 4,> 4,> 4,1.01 to 2,1.01 to 2,1.01 to 2,1.01 to 2,2.01 to 5,2.01 to 5
"Cn1cnnc1[C@@H]1C[C@@H]1c1cccc(N2Cc3c(ccnc3C(F)(F)F)C2=O)c1 [Compound 369, 2-{3-[(1S,2R)-2-(4-methyl-4H-1,2,4-triazol-3-yl)cyclopropyl]phenyl}-4-(trifluoromethyl)-1H,2H,3H-pyrrolo[3,4-c]pyridin-1-one]",≤ 1.2,1.4 to 1.6,≤ 1.2,1.2 to 1.4,≤ 1.2,≤ 1.2,≤ 1.2,≤ 1.2,< 2,> 4,< 2,2.01 to 3,< 2,< 2,< 1,< 1,1.01 to 2,< 1,2.01 to 5,1.01 to 2
"Cn1cnnc1[C@@H]1C[C@@H]1c1cccc(N2Cc3c(cccc3C(F)(F)F)C2=O)c1 [Compound 282, 2-(3-((1S,2R)-2-(4-methyl-4H-1,2,4-triazol-3-yl)cyclopropyl)phenyl)-4-(trifluoromethyl)isoindolin-1-one]",≤ 1.2,1.2 to 1.4,≤ 1.2,1.2 to 1.4,≤ 1.2,1.2 to 1.4,≤ 1.2,≤ 1.2,< 2,> 4,< 2,2.01 to 3,< 2,3.01 to 4,1.01 to 2,1.01 to 2,1.01 to 2,1.01 to 2,2.01 to 5,2.01 to 5
